The test system of data set [1] is CCRF-CEM. In words: Growth inhibition of human CCRF-CEM cells. Format: functional.
The test system of data set [2] is SR. In words: Growth inhibition of human SR cells. Format: functional.
Data set [3] deals with B16. In words: Cytotoxicity against mouse B16 cells. The class given is functional, cell-based.
In data set [4] the test system is A2780. In words: Cytotoxicity against human A2780 cells. Format: functional, cell-based.
Data set [5] is filed under the species Homo sapiens. In words: Toxicity in metastatic breast cancer patient assessed as neuropathy rate. The class given is organism-based. To be noted: in vivo.
The species named for data set [6] is Homo sapiens. In words: Toxicity in metastatic breast cancer patient assessed as incidence of neuropathy. Format: organism-based. The following applies: in vivo.
The species entered for data set [7] is Homo sapiens. In words: Toxicity in metastatic breast cancer patient assessed as incidence of peripheral neuropathy. The class given is organism-based. The following applies: in vivo.
In data set [8] the test system is MCF7. Description: Cytotoxicity against human MCF7 cells. The class given is functional, cell-based.
Data set [9] can be described thus: Cytotoxicity against human H460 cells. The class given is functional, cell-based. To be noted: NCI-H460.

≈ marks a conversion by molar mass, not a printed value.

The term GI50 denotes the concentration giving 50% growth inhibition. On to `CC1=C(c2ccc(C)cn2)CC2/C=C(/C)CCC[C@H](C)[C@H](O)[C@@H](C)C(=O)C(C)(C)[C@@H](O)CC(=O)O[C@H]12` (single isomer, unassigned), for which the GI50 was found to be 2.7 nM in data set [1] and 2.9 nM in [2].

One may read the IC50 as the point on the concentration scale where inhibition reaches its midpoint. The compound `C=C1C[C@@H]2CC[C@@]34O[C@@H]5[C@@H]6O[C@](O)([C@H](O3)[C@@H]6O[C@H]3CC[C@H](CC(=O)O[C@@H]6[C@@H](C)[C@@H]7O[C@@H]8C[C@]9(C[C@@H]%10O[C@]%11(C[C@H](C)[C@@H]%12O[C@H](CC(=O)O)[C@H](O)C[C@@H]%12O%11)C[C@H](C)[C@@H]%10O9)O[C@@H]8C[C@@H]7O[C@H]6C[C@H]6O[C@@H](CC[C@@H]1O2)C[C@@H](C)C6=C)O[C@H]53)[C@H]4O` gave an IC50 in [3] of 5 ng/mL (≈ 4.44 nM).

As usually defined, the EC50 is the concentration that produces a half-maximal response. A high value points to lower potency in that assay. `C/C(=C\c1csc(C)n1)[C@@H]1C[C@@H]2O[C@]2(C)CCC[C@@H]2CCC[C@@H](C(=O)C(C)(C)[C@@H](O)CC(=O)O1)[C@H]2O` yielded an EC50 in [4] of 8500 nM.

For `C/C(=C\c1csc(C)n1)[C@@H]1C[C@@H]2O[C@]2(C)CCC[C@H](C)[C@H](O)[C@@H](C)C(=O)C(C)(C)[C@@H](O)CC(=O)N1` [IXABEPILONE], the Activity in data set [5] is on record as 63%; in data set [6] it was 48%; in data set [7], 44%.

Take `C=C1C[C@@H]2CC[C@@]34C[C@H]5O[C@H]6[C@@H](O3)[C@H]3O[C@H](CC[C@@H]3O[C@H]6[C@H]5O4)CC(=O)C[C@@H]3[C@@H](OC)[C@@H](C[C@H](O)CN)O[C@H]3C[C@H]3O[C@@H](CC[C@@H]1O2)C[C@@H](C)C3=C` [ERIBULIN]: the values for the Activity in [5], in data set [6] and in data set [7] were 35%, 33.3% and 31.4%, respectively.

On to `CO[C@H]1/C=C(/C)CCC[C@H](C)[C@H](O)[C@@H](C)C(=O)C(C)(C)[C@@H](O)CC(=O)O[C@@H]1/C(C)=C/c1csc(C)n1`, for which the values for the IC50 in data set [8] and in data set [9] were 3.7 nM and 4.9 nM, respectively.

For `C/C(=C\c1csc(C)n1)[C@@H]1C[C@@H]2O[C@@H]2CCC[C@@H]2CCC[C@@H](C(=O)C(C)(C)[C@@H](O)CC(=O)O1)[C@H]2O`, the EC50 in [4] is 8500 nM.
